Data on 19 compounds can be found in US20240228488A1 (TAKEDA PHARMACEUTICAL COMPANY LIMITED, priority 2021, published 2024).

In experiment [1] the target is human activated kallikrein enzyme (Homo sapiens, UniProt P03952). The experiment can be described thus: Plasma kallikrein inhibition, fluorogenic PFR-AMC substrate, 500 pM activated kallikrein format. Type of experiment: biochemical. Conditions: 500 pM activated kallikrein, 300 uM PFR-AMC, 30 min preincubation, 10 min reaction; read-out: Primary Dose Response Assay: Average EC50. A digest of the protocol:
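Enzyme at 500 pM preincubated 30 min RT with inhibitors in 20 mM Tris pH 7.5, 1 mM EDTA, 150 mM NaCl, 0.1% PEG-400, 0.1% Triton X-100. Reaction started with 300 uM PFR-AMC, run 10 min RT; fluorescence read at 460 nm emission, 380 nm excitation. EC50 reported in ranges.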

For the next experiment, the target named is T1, plasma kallikrein (Homo sapiens, UniProt P03952).
T1 construct: from tissue
The experiment is described as follows: Neat human plasma assay, FXIIa contact pathway-activated, PFR-AMC substrate. The experiment is classed as biochemical. Conditions: citrated human plasma 78% final, 10 nM human FXIIa, 100 μM PFR-AMC; read-out: Human Plasma Assay: IC90. A digest of the protocol:
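Citrated human plasma (78% final) with compound, contact-activated by 10 nM human FXIIa in pKal buffer pH 7.5, with 100 μM PFR-AMC. Fluorescence (360/480 nm) followed 5 min at room temperature; rates versus concentration fitted by 4-parameter equation for IC50/IC90.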

pEC50: −log10 of the molar value. Where only a bound is given, the exact number is not on record here.

Chain of human activated kallikrein enzyme (P03952 391-638 limits assumed): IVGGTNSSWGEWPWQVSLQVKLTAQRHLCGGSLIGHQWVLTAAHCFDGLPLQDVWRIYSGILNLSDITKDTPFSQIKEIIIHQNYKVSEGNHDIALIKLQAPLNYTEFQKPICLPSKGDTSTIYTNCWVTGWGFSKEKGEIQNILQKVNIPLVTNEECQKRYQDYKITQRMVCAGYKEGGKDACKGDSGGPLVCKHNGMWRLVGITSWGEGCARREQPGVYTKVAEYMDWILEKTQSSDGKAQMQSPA
Chain of human activated kallikrein enzyme (P03952 20-390 partner limits assumed): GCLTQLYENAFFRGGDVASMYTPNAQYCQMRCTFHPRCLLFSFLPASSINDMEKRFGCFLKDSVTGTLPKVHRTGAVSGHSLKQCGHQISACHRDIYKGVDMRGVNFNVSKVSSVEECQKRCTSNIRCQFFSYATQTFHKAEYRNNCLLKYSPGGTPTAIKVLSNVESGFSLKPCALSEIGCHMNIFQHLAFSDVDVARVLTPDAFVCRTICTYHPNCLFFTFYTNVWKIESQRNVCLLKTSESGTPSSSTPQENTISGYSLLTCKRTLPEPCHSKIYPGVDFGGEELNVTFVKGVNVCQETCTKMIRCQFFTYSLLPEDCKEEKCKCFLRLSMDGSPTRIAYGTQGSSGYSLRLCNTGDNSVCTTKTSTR
T1 sequence (P03952 391-638 limits assumed): as the sequence (P03952 391-638 limits assumed) above
T1 sequence (P03952 20-390 partner limits assumed): as the sequence (P03952 20-390 partner limits assumed) above

On to `CN1CC(=O)N(c2cc(C3CC3)cn3cc(CNc4cc(NC(=O)[C@H]5C[C@@H]5c5cccc(Cl)c5)ncn4)nc23)CC1=O` [Example 404, (1S,2S)-2-(3-chlorophenyl)-N-(6-(((6-cyclopropyl-8-(4-methyl-2,5-dioxopiperazin-1-yl)imidazo[1,2-a]pyridin-2-yl)methyl)amino)pyrimidin-4-yl)cyclopropane-1-carboxamide], for which, in experiment [1], the pEC50 is more than 9.00. Besides, at plasma kallikrein, the IC90 was 0.4 to 1.5 µM.

As for `COc1nc(NC(=O)[C@H]2C[C@@H]2c2nccc(C)n2)cc(N(C)Cc2cn3cc(C4CC4)cc(N4CC(=O)N(C)C4=O)c3n2)n1` [Example 406, (1S,2S)-N-(6-(((6-cyclopropyl-8-(3-methyl-2,4-dioxoimidazolidin-1-yl)imidazo[1,2-a]pyridin-2-yl)methyl)(methyl)amino)-2-methoxypyrimidin-4-yl)-2-(4-methylpyrimidin-2-yl)cyclopropane-1-carboxamide], in experiment [1], the pEC50 is more than 9.00. For the same compound, the IC90 at plasma kallikrein was less than 0.4 µM.

As to `COc1nc(NC(=O)[C@H]2C[C@@H]2c2nccc(C)n2)cc(N[C@H](C)c2cn3cc(C4CC4)cc(N4CC(=O)N(C)C4=O)c3n2)n1` [Example 407, (1S,2S)-N-(6-(((R)-1-(6-cyclopropyl-8-(3-methyl-2,4-dioxoimidazolidin-1-yl)imidazo[1,2-a]pyridin-2-yl)ethyl)amino)-2-methoxypyrimidin-4-yl)-2-(4-methylpyrimidin-2-yl)cyclopropane-1-carboxamide], in experiment [1], the pEC50 was more than 9.00. The IC90 at plasma kallikrein lay in the range of 0.4 to 1.5 µM.

With `Cc1ccnc([C@H]2C[C@@H]2C(=O)Nc2cc(N(C)Cc3cn4cc(C5CC5)cc(N5CC(=O)NC5=O)c4n3)nc(C3CC3)n2)n1` [Example 408, (1S,2S)-N-(2-cyclopropyl-6-(((6-cyclopropyl-8-(2,4-dioxoimidazolidin-1-yl)imidazo[1,2-a]pyridin-2-yl)methyl)(methyl)amino)pyrimidin-4-yl)-2-(4-methylpyrimidin-2-yl)cyclopropane-1-carboxamide], in experiment [1], the pEC50 was 8.00 to 9.00. Also, at plasma kallikrein, the IC90 was in the range of 0.4 to 1.5 µM.

In the case of `Cc1ccnc([C@H]2C[C@@H]2C(=O)Nc2cc(NCc3cn4cc(C5CC5)cc(N5CC(=O)N(C)C5=O)c4n3)nc(C3CC3)n2)n1` [Example 410, (1S,2S)-N-(2-cyclopropyl-6-(((6-cyclopropyl-8-(3-methyl-2,4-dioxoimidazolidin-1-yl)imidazo[1,2-a]pyridin-2-yl)methyl)amino)pyrimidin-4-yl)-2-(4-methylpyrimidin-2-yl)cyclopropane-1-carboxamide], the pEC50 in experiment [1] was more than 9.00. Moreover, the IC90 at plasma kallikrein is less than 0.4 µM.

As to `COc1cc(N2CC(=O)N(C)C2=O)c2nc([C@@H](C)Nc3cc(NC(=O)[C@H]4C[C@@H]4c4nccc(C)n4)ncn3)cn2c1` [Example 415, (1S,2S)-N-(6-(((R)-1-(6-methoxy-8-(3-methyl-2,4-dioxoimidazolidin-1-yl)imidazo[1,2-a]pyridin-2-yl)ethyl)amino)pyrimidin-4-yl)-2-(4-methylpyrimidin-2-yl)cyclopropane-1-carboxamide], the pEC50 in experiment [1] was more than 9.00. Further, the IC90 on plasma kallikrein is less than 0.4 µM.

Take `Cc1ccnc([C@H]2C[C@@H]2C(=O)Nc2cc(N[C@H](C)c3cn4cc(C5CC5)cc(N5CCCC5=O)c4n3)ncn2)n1` [Example 418, (1S,2S)-N-(6-(((R)-1-(6-cyclopropyl-8-(2-oxopyrrolidin-1-yl)imidazo[1,2-a]pyridin-2-yl)ethyl)amino)pyrimidin-4-yl)-2-(4-methylpyrimidin-2-yl)cyclopropane-1-carboxamide]: the pEC50 in experiment [1] is more than 9.00. Moreover, the IC90 on plasma kallikrein was less than 0.4 µM.

As to `Cc1cc(N2CC(=O)N(C)C2=O)c2nc([C@@H](C)Nc3cc(NC(=O)[C@H]4C[C@@H]4c4nccc(C)n4)ncn3)cn2c1` [Example 423, (1S,2S)-N-(6-(((R)-1-(6-methyl-8-(3-methyl-2,4-dioxoimidazolidin-1-yl)imidazo[1,2-a]pyridin-2-yl)ethyl)amino)pyrimidin-4-yl)-2-(4-methylpyrimidin-2-yl)cyclopropane-1-carboxamide], the pEC50 in experiment [1] was more than 9.00. The IC90 on plasma kallikrein was less than 0.4 µM.

`Cc1ccnc([C@H]2C[C@@H]2C(=O)Nc2cc(N[C@H](C)c3cn4cc(C5(F)CC5)cc(N5CC(=O)N(C)C5=O)c4n3)ncn2)n1` [Example 424, (1S,2S)-N-(6-(((R)-1-(6-(1-fluorocyclopropyl)-8-(3-methyl-2,4-dioxoimidazolidin-1-yl)imidazo[1,2-a]pyridin-2-yl)ethyl)amino)pyrimidin-4-yl)-2-(4-methylpyrimidin-2-yl)cyclopropane-1-carboxamide]: the pEC50 in experiment [1] is more than 9.00. For the same compound, on plasma kallikrein, the IC90 is 0.4 to 1.5 µM.

Consider `Cc1cc(N2CC(=O)N(C)C2=O)c2nc([C@@H](C)Nc3cc(NC(=O)[C@H]4C[C@@H]4c4nccc(C)n4)nc(C)n3)cn2c1` [Example 434, (1S,2S)-N-(2-methyl-6-(((R)-1-(6-methyl-8-(3-methyl-2,4-dioxoimidazolidin-1-yl)imidazo[1,2-a]pyridin-2-yl)ethyl)amino)pyrimidin-4-yl)-2-(4-methylpyrimidin-2-yl)cyclopropane-1-carboxamide], for which the pEC50 in experiment [1] is more than 9.00. In addition, the IC90 on plasma kallikrein was less than 0.4 µM.

For `Cc1ccnc([C@H]2C[C@@H]2C(=O)Nc2cc(N[C@H](C)c3cn4cc(C5CC5)cc(N5CC6(COC6)OC5=O)c4n3)nc(C)n2)n1` [Example 437, (1S,2S)-N-(6-(((R)-1-(6-cyclopropyl-8-(6-oxo-2,5-dioxa-7-azaspiro[3.4]octan-7-yl)imidazo[1,2-a]pyridin-2-yl)ethyl)amino)-2-methylpyrimidin-4-yl)-2-(4-methylpyrimidin-2-yl)cyclopropane-1-carboxamide], the pEC50 in experiment [1] is more than 9.00. Besides, the IC90 on plasma kallikrein is less than 0.4 µM.

Take `Cc1ccnc([C@H]2C[C@@H]2C(=O)Nc2cc(NC(C)c3cn4cc(C5CC5)cc(N5CC(=O)N(C)C5=O)c4n3)nc(C)n2)n1` (stereo partly drawn) [Example 454, (1S,2S)—N-(6-((1-(6-cyclopropyl-8-(3-methyl-2,4-dioxoimidazolidin-1-yl)imidazo[1,2-a]pyridin-2-yl)ethyl)amino)-2-methylpyrimidin-4-yl)-2-(4-methylpyrimidin-2-yl)cyclopropane-1-carboxamide]: the pEC50 in experiment [1] was more than 9.00. Further, the IC90 at plasma kallikrein lay in the range of 0.4 to 1.5 µM.

As to `Cc1ccnc([C@H]2C[C@@H]2C(=O)Nc2cc(NC(C)c3cn4cc(C5CC5)cc(N5CC(=O)N(CCO)C5=O)c4n3)nc(C3CC3)n2)n1` (stereo partly drawn) [Example 460, (1S,2S)—N-(2-cyclopropyl-6-((1-(6-cyclopropyl-8-(3-(2-hydroxyethyl)-2,4-dioxoimidazolidin-1-yl)imidazo[1,2-a]pyridin-2-yl)ethyl)amino)pyrimidin-4-yl)-2-(4-methylpyrimidin-2-yl)cyclopropane-1-carboxamide], the pEC50 in experiment [1] was 8.00 to 9.00. Further, on plasma kallikrein, the IC90 lay within 1.5 to 10 µM.

As for `Cc1ccnc([C@H]2C[C@@H]2C(=O)Nc2cc(N(C)Cc3cn4cc(C5CC5)cc(N5CC(=O)N(CCO)C5=O)c4n3)ncn2)n1` [Example 462, (1S,2S)-N-(6-(((6-cyclopropyl-8-(3-(2-hydroxyethyl)-2,4-dioxoimidazolidin-1-yl)imidazo[1,2-a]pyridin-2-yl)methyl)(methyl)amino)pyrimidin-4-yl)-2-(4-methylpyrimidin-2-yl)cyclopropane-1-carboxamide], the pEC50 in experiment [1] was more than 9.00. Besides, the IC90 on plasma kallikrein was less than 0.4 µM.

With `O=C(Nc1cc(NCc2cn3cc(C4CC4)cc(N4CC(=O)N(CCO)C4=O)c3n2)ncn1)[C@H]1C[C@@H]1c1cccc(Cl)c1` [Example 463, (1S,2S)-2-(3-chlorophenyl)-N-(6-(((6-cyclopropyl-8-(3-(2-hydroxyethyl)-2,4-dioxoimidazolidin-1-yl)imidazo[1,2-a]pyridin-2-yl)methyl)amino)pyrimidin-4-yl)cyclopropane-1-carboxamide], the pEC50 in experiment [1] was more than 9.00. Also, the IC90 on plasma kallikrein was 0.4 to 1.5 µM.

Consider `Cc1ccnc([C@H]2C[C@@H]2C(=O)Nc2cc(NCc3cn4cc(C5CC5)cc(N5CC(=O)N(CCO)C5=O)c4n3)ncn2)n1` [Example 464, (1S,2S)-N-(6-(((6-cyclopropyl-8-(3-(2-hydroxyethyl)-2,4-dioxoimidazolidin-1-yl)imidazo[1,2-a]pyridin-2-yl)methyl)amino)pyrimidin-4-yl)-2-(4-methylpyrimidin-2-yl)cyclopropane-1-carboxamide], for which the pEC50 in experiment [1] is more than 9.00. The IC90 on plasma kallikrein is less than 0.4 µM.

In the case of `Cc1ccnc([C@H]2C[C@@H]2C(=O)Nc2cc(NCc3cn4cc(C5CC5)cc(N5CC(=O)N(CC(=O)O)C5=O)c4n3)ncn2)n1` [Example 465], in experiment [1], the pEC50 is more than 9.00. Besides, the IC90 on plasma kallikrein was in the range of 0.4 to 1.5 µM.

Regarding `Cc1ccnc([C@H]2C[C@@H]2C(=O)Nc2cc(NCc3cn4cc(C5CC5)cc(N5CC(=O)N(COP(=O)(O)O)C5=O)c4n3)ncn2)n1` [Example 466, (3-(6-cyclopropyl-2-(((6-((1S,2S)-2-(4-methylpyrimidin-2-yl)cyclopropane-1-carboxamido)pyrimidin-4-yl)amino)methyl)imidazo[1,2-a]pyridin-8-yl)-2,5-dioxoimidazolidin-1-yl)methyl dihydrogen phosphate], the pEC50 in experiment [1] is more than 9.00. In addition, the IC90 on plasma kallikrein lay in the range of 1.5 to 10 µM.

For the compound `O=C1CN(c2cc(C3CC3)cn3cc([C@H]4C[C@H](O)CN4c4cc(NC(=O)[C@H]5C[C@@H]5c5cc(Cl)ccn5)ncn4)nc23)C(=O)N1` [Example 475, (1S,2S)-2-(4-chloropyridin-2-yl)-N-(6-((2R,4S)-2-(6-cyclopropyl-8-(2,4-dioxoimidazolidin-1-yl)imidazo[1,2-a]pyridin-2-yl)-4-hydroxypyrrolidin-1-yl)pyrimidin-4-yl)cyclopropane-1-carboxamide], the pEC50 in experiment [1] is more than 9.00. Further, on plasma kallikrein, the IC90 was less than 0.4 µM.
